IC50 data for 9 compounds are collected here from patent US20230203060A1 (GENFLEET THERAPEUTICS (SHANGHAI) INC., priority 2020, published 2023).

Assay [1] relates to KRAS G12C mutant NCI-H358 cells. Nature of the assay: Cell proliferation inhibition experiment, 3D spheroid, CellTiter-Glo, NCI-H358. The class given is cell-based, human. The settings on record: Homo sapiens, NCI-H358, 120 h, NCI-H358 (KRAS G12C mutant) 3D spheroid, 5 days with compound, CellTiter-Glo; read-out: H358 IC50. The method, boiled down: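 IC50 values come from four-parameter fits of proliferation inhibition, measured by CellTiter-Glo after 5-day compound exposure. Spheroids of H358 (800 cells) or A549 (400 cells) were formed overnight in 2% FBS medium; DMSO held at 0.1%, doses spaced 3.16-fold.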
Background: Cellular ATP, detected with luciferase, serves as a proxy for viable cell number.

Assay [2] deals with phosphorylated ERK downstream of KRAS G12C in MIA PaCa2 cells. Nature of the assay: Cell p-ERK detection experiment (HTRF) in MIA PaCa2. Type of assay: cell-based, human. The settings on record: Homo sapiens, MIA PaCa-2, 2 h, MIA PaCa2 cells, 2 hours with compound, Advance ERK phospho-T202/Y204 HTRF kit; read-out: p-ERK IC50. The method, boiled down: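 Phospho-ERK (T202/Y204) measured by HTRF after 30 min lysis and 4 h antibody incubation in MIA PaCa2 (KRAS G12C) cells, seeded at 2.5E4 per well and treated 2 h with compounds in 3.16-fold steps, final DMSO 0.1%. IC50 from a four-parameter fit of percent inhibition relative to DMSO and blank wells.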
(In general: In TR-FRET formats the signal depends on donor and acceptor labels being close together.)

As for `C=CC(=O)N1CCN2C(=O)c3c(N4CC[C@@H](OC)[C@@H]4C)nc(-c4c(O)cccc4F)c(Cl)c3OC[C@H]2C1` [Z338-1, (6aR)-8-acryloyl-4-chloro-3-(2-fluoro-6-hydroxyphenyl)-1-((2S,3R)-3-methoxy-2-methylpyrrolidin-1-yl)-6,6a,7,8,9,10-hexahydro-12H-pyrazino[2,1-c]pyrido[3,4-f][1,4]oxazepin-12-one], the figures for the IC50 in assay [1] and in assay [2] were 0.006 µM and 0.046 µM, respectively.

Consider `C=CC(=O)N1CCN2C(=O)c3c(N4CCN(C)C[C@@H]4C)nc(-c4c(F)ccc(Cl)c4O)c(Cl)c3OC[C@H]2C1` [Z342, (6aR)-8-acryloyl-4-chloro-3-(3-chloro-6-fluoro-2-hydroxyphenyl)-1-((S)-2,4-dimethylpiperazin-1-yl)-6,6a,7,8,9,10-hexahydro-12H-pyrazino[2,1-c]pyrido[3,4-f][1,4]oxazepin-12-one], for which the IC50 in assay [1] was 0.0095 µM; in assay [2] it was 0.084 µM.

`C=CC(=O)N1CCN2C(=O)c3c(N4CCN(C)C[C@@H]4C)nc(-c4c(O)ccc(Cl)c4F)c(Cl)c3OC[C@H]2C1` [Z343, (6aR)-8-acryloyl-4-chloro-3-(3-chloro-2-fluoro-6-hydroxyphenyl)-1-((S)-2,4-dimethylpiperazin-1-yl)-6,6a,7,8,9,10-hexahydro-12H-pyrazino[2,1-c]pyrido[3,4-f][1,4]oxazepin-12-one]: the IC50 in assay [1] came out at 0.0104 µM; in assay [2], 0.119 µM.

On to `C=CC(=O)N1CCN2C(=O)c3c(N4CC(N5CCOCC5)CC4(C)C)nc(-c4c(O)cccc4F)c(Cl)c3OC[C@H]2C1` (stereo partly drawn) [Z344, (6aR)-8-acryloyl-4-chloro-1-((2,2-dimethyl-4-morpholinopyrrolidin-1-yl))-3-(2-fluoro-6-hydroxyphenyl)-6,6a,7,8,9,10-hexahydro-12H-pyrazino[2,1-c]pyrido[3,4-f][1,4]oxazepin-12-one], for which the IC50 amounted to 0.0013 µM in assay [1] and 0.01 µM in assay [2].

In the case of `C=CC(=O)N1CCN2C(=O)c3c(N4CC[C@H](OC)[C@@H]4C)nc(-c4c(O)cccc4F)c(Cl)c3OC[C@H]2C1` [Z347-1, (6aR)-8-acryloyl-4-chloro-3-(2-fluoro-6-hydroxyphenyl)-1-((2S,3S)-3-methoxy-2-methylpyrrolidin-1-yl)-6,6a,7,8,9,10-hexahydro-12H-pyrazino[2,1-c]pyrido[3,4-f][1,4]oxazepin-12-one], the values for the half-maximal inhibitory concentration (IC50) in assay [1] and in assay [2] were 0.0021 µM and 0.011 µM, respectively.

As for `C=CC(=O)N1CCN2C(=O)c3c(N4CCN(C)C[C@@H]4C)nc(-c4c(F)ccc(F)c4O)c(Cl)c3OC[C@H]2C1` [Z356, (6aR)-8-acryloyl-4-chloro-3-(3,6-difluoro-2-hydroxyphenyl)-1-((S)-2,4-dimethylpiperazin-1-yl)-6,6a,7,8,9,10-hexahydro-12H-pyrazino[2,1-c]pyrido[3,4-f][1,4]oxazepin-12-one], the IC50 in assay [1] came out at 0.02 µM; in assay [2] it was 0.253 µM.

On to `C=CC(=O)N1CCN2C(=O)c3c(N4C[C@@H](N(C)CCOC)C[C@@H]4C)nc(-c4c(O)cccc4F)c(Cl)c3OC[C@H]2C1` [Z358-1], for which the values for the IC50 in assay [1] and in assay [2] were 0.0048 µM and 0.023 µM, respectively.

As to `C=CC(=O)N1CCN2C(=O)c3c(N4C[C@@H](OC)C[C@@H]4C)nc(-c4c(O)cccc4F)c(F)c3OC[C@H]2C1` [Z359-1, (6aR)-8-actyloyl-4-fluoro-3-(2-fluoro-6-hydroxyphenyl)-1-((2S,4S)-4-methoxy-2-methylpyrrolidin-1-yl)-6,6a,7,8,9,10-hexahydro-12H-pyrazino[2,1-c]pyrido[3,4-f][1,4]oxazepin-12-one], the IC50 turned out to be 0.0083 µM in assay [1] and 0.093 µM in assay [2].

Regarding `C=CC(=O)N1CCN2C(=O)c3c(N4CCN(C)C(C)C4C)nc(-c4c(O)cccc4F)c(Cl)c3OC[C@H]2C1` (stereo partly drawn) [Z369, (6aR)-8-acryloyl-4-chloro-3-(2-fluoro-6-hydroxyphenyl)-1-(2,3,4-trimethylpiperazin-1-yl)-6,6a,7,8,9,10-hexahydro-12H-pyrazino[2,1-c]pyrido[3,4-f][1,4]oxazepin-12-one], the figures for the IC50 in assay [1] and in assay [2] were 0.0036 µM and 0.029 µM, respectively.

The IC50 is the midpoint of a concentration-inhibition curve.
